The results in this text go back to patent US20030229132A1, “Small molecule modulators of apoptosis” (priority 2002, published 2003).

The term IC50 denotes the concentration needed to halve the response being measured.

A value given as a limit tells only on which side of the number the result lay.

The subject of data set [1] is cell lines from the NCI cancer panel. Put plainly: NCI cancer panel, cell growth by sulforhodamine B staining. It is filed as cell-based. Here is the method: Cells were exposed to serial dilutions of compound 2 continuously for 6 days, and cell growth relative to controls was determined by staining with sulforhodamine B. Some cell lines were excluded for clarity. (A) Dose-response plots for leukemia, melanoma, renal cancer and CNS cancer. (B) Dose-response plots for lung, breast and colon cancers.
Compounds 2-5 additionally were submitted to the National Cancer Institute for screening in the cancer panel. […] Compound 2 exerted a cytostatic effect on the majority of cell lines tested, inhibiting cell growth by 50-100% at 10 μM in 40 out of 48 cell lines tested. In addition, compound 2 exerted a cytotoxic effect, reducing the cell numbers by 10-50% in four cell lines and by 50-100% in eight cell lines from the initial levels when tested at 10 μM. […] Representative dose-response plots for lung, breast and colon cancer cell lines are also shown (FIG. 4B). Results for ovarian and prostate cancer were similar.

The test system of data set [2] is Apaf-1 transfected SK-OV-3 cells. Put plainly: Viability of SK-OV-3 cells transiently transfected with Apaf-1. It is filed as cell-based. The settings on record: several independent experiments. How it is done:
(A) Jurkat cells were transfected with 20 nM Apaf-1 siRNA for 48 hr and half the cells were lysed and probed with antibodies to Apaf-1, caspase-9, and caspase-3. The other half of the cells was incubated with varying concentrations of (B), compound 2 or (C), Fas ligand for 24 hr and assayed for viability by MTT test. (D) SK-OV-3 cells were transiently transfected with Apaf-1 or vector control for 24 hr and then incubated with vary concentrations of compound 2 and assayed for viability. (E) Cyto c was titrated into SK-OV-3 cell lysate in the presence of 300 μM dATP, with or without 150 nM purified Apaf-1 and 20 μM compound 2 as indicated.
If silencing Apaf-1 in Jurkat cells make them resistant to compound 2 induced apoptosis, then it would be expected that ectopic expression of wildtype Apaf-1 in an Apaf-1 deficient cell line should render cells sensitive to compound 2. As mentioned above, the ovarian cancer cell line SK-OV-3 is deficient in Apaf-1 activity and is resistant to compound 2. Apaf-i was cloned into pcDNA-3 and transiently transfected into SK-OV-3 cells using Fugene (Roche) according to the manufacturer's instructions. Transient transfection of Apaf-1 into SK-OV-3 cells rendered them sensitive to compound 2 cytotoxicity as compared to the vector control (FIG. 5D). […]

The subject of a further data set is NCI-H23. The data set is described as follows: Cell viability, NCI-H23. In kind it is cell-based, human. The conditions noted are these: NCI-H23, lung.
The subject of a further data set is MCF-7. The data set is described as follows: Cell viability, MCF-7. It is filed as cell-based. The source says:
(§1) Normal cell lines include peripheral blood lymphocytes (PBL) isolated from donated human blood, non-transformed mammary fibroblasts (MCF-10A), human mammary epithelial cells (HMEC), human umbilical vein endothelial cells (HUVEC), and human prostate epithelial cells (PREC). Transformed cell lines include cell lines from leukemia, breast, lung, ovarian, and epidermal cancers (Table 1).

Data set [3] has as its system human prostate epithelial cells (PREC). Put plainly: Cell viability, PREC. It is filed as cell-based.
Excerpt: as §1

Take `O=C1C(=O)N(Cc2ccc(Cl)c(Cl)c2)c2ccccc21` [Compound 2]: the “inhibition of cell growth (cytostatic effect)” value in data set [1] (10 μM, in 40 out of 48 cell lines tested, 6 days) was 50-100%. Moreover, the “reduction of cell numbers from the initial levels (cytotoxic effect)” value is recorded as 50-100% in data set [1] (10 μM, in eight cell lines) and 10-50% in data set [1] (10 μM, in four cell lines). The cytotoxicity in data set [1] (100 μM, virtually all cell lines) worked out at 100%. Moreover, the “sensitivity relative to the mean response of the panel” value in data set [1] (CCRF-CEM, MOLT-4, LOX IMVI, SN 12C, SF-295) is recorded as 5-10 fold. Further, in data set [1] (among compounds 2-5), the “overall activity in the cancer panel” value is “most active overall”. In addition, in data set [2], the “viability of cells exposed to compound (plateau)” value is reported as 40-50%. Moreover, the IC50 in the data set on NCI-H23 is 35 µM; in the data set with MCF-7 (MCF-7, breast, caspase-3 deficient), more than 50 µM; in data set [3] (PREC, normal cell) it was more than 50 µM. Moreover, the effect on cells result with MCF-7 (MCF-7, deficient in caspase-3 activity) is on record as “no effect”; in data set [3] (PREC cells, up to 50 μM) it was “no effect except at the highest concentration”.
